Experimental data reported in patent US20060089378A1 (priority 2004, published 2006).
Like-named read-outs stand apart in the source and are kept apart here.

Assays:
[1] = molecular target: CB1 receptor (human) (Homo sapiens, UniProt P21554); experiment: cell-based; settings: for CB1 Receptor Functional Activity (change in functional activity, CRE β-gal): one compound concentration, β-galactosidase activity relative to vehicle treated cells
[2] = molecular target: T1, Cannabinoid CB2 Receptor (Homo sapiens, UniProt P34972); experiment: Binding assay for CB2 agonists or inverse agonists (radioligand competition, membranes of transfected SK-N-MC cells); settings: for inhibition at 0.2 µM: read-out: Cannabinoid CB2 Receptor Binding percent inhibition
T1 construct: expressed in transfected cells
T1 sequence (P34972 whole entry): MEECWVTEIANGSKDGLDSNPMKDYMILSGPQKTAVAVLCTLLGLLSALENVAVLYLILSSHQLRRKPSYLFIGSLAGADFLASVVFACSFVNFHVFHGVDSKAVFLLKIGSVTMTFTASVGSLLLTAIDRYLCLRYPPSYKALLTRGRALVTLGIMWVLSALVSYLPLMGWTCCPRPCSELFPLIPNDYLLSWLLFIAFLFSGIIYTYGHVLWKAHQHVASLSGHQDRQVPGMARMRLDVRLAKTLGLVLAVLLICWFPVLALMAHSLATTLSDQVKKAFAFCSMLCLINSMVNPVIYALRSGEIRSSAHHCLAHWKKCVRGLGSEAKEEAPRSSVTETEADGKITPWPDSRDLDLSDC

[3] = molecular target: T2, Cannabinoid CB1 Receptor (Homo sapiens, UniProt P21554); experiment: Binding assay for CB1 agonists or inverse agonists (radioligand competition, membranes of transfected SK-N-MC cells); settings: for inhibition at 0.2 µM: read-out: Cannabinoid CB1 Receptor Binding percent inhibition
T2 construct: expressed in transfected cells
T2 sequence (P21554 whole entry): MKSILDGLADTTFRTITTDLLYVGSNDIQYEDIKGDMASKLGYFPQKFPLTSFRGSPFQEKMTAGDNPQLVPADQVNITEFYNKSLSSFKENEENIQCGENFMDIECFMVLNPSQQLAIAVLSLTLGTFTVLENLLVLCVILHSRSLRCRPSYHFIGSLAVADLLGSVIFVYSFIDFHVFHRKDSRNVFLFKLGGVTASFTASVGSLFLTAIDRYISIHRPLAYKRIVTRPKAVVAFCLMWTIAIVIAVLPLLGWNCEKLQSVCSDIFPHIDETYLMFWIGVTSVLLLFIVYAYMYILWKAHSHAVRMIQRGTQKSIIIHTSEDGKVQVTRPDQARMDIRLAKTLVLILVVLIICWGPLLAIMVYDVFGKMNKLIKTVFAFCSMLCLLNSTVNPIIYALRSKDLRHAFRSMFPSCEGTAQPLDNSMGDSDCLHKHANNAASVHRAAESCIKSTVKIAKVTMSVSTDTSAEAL

[4] = test concentration of 0.2 μM, compounds without an IC50 binding value
[5] = human CB1, SK-N-MC cell membranes, calculated by linear regression from percent inhibition at various concentrations, read-out: Cannabinoid CB1 Receptor Binding IC50

CB1 receptor (human), sequence (P21554 whole entry): as above

Row | Structure (SMILES) | EC50 [1] [nM] | inhibition at 0.2 µM [2] [%] | IC50 [3] [nM] | also measured
1 | CCNC(=O)N1C/C(=C\c2ccc(F)cc2)c2c(c(C(=O)NC(C)c3ccccn3)nn2-c2ccc(Cl)cc2)C1 (stereo not drawn) [Cpd 77, (7E)-1-(4-chloro-phenyl)-7-(4-fluoro-benzylidene)-1,4,6,7-tetrahydro-pyrazolo[4,3-c]pyridine-3,5-dicarboxylic acid 5-ethylamide 3-[(1-pyridin-2-yl-ethyl)-amide]] | 10 | 0 | 80 | –
2 | COC(=O)N1C/C(=C\c2ccc(F)cc2)c2c(c(C(=O)NC(C)c3ccccn3)nn2-c2ccc(Cl)cc2)C1 (stereo not drawn) [Cpd 79, (7E)-1-(4-chloro-phenyl)-7-(4-fluoro-benzylidene)-3-(1-pyridin-2-yl-ethylcarbamoyl)-1,4,6,7-tetrahydro-pyrazolo[4,3-c]pyridine-5-carboxylic acid methyl ester] | 3 | 13 | 10 | –
3 | CC(=O)N1C/C(=C\c2ccc(F)cc2)c2c(c(C(=O)NC(C)c3ccccn3)nn2-c2ccc(Cl)cc2)C1 (stereo not drawn) [Cpd 80, (7E)-5-acetyl-1-(4-chloro-phenyl)-7-(4-fluoro-benzylidene)-4,5,6,7-tetrahydro-1H-pyrazolo[4,3-c]pyridine-3-carboxylic acid (1-pyridin-2-yl-ethyl)-amide] | 9 | 0 | 100 | –
4 | COC(=O)N1C/C(=C\c2ccc(F)cc2)c2c(c(C(=O)NN3CC4CCCC4C3)nn2-c2ccc(Cl)cc2)C1 (stereo not drawn) [Cpd 87, (7E)-1-(4-chloro-phenyl)-7-(4-fluoro-benzylidene)-3-(hexahydro-cyclopenta[c]pyrrol-2-ylcarbamoyl)-1,4,6,7-tetrahydro-pyrazolo[4,3-c]pyridine-5-carboxylic acid methyl ester] | 1 | 16 | 50 | –
5 | COc1ccc(/C=C2\CN(C(=O)OC(C)(C)C)Cc3c(C(=O)N[C@H](C)c4ccccn4)nn(-c4ccc(Cl)cc4Cl)c32)cc1 [Cpd 89, (7E)-1-(2,4-dichloro-phenyl)-7-(4-methoxy-benzylidene)-3-[(1R)-1-pyridin-2-yl-ethylcarbamoyl]-1,4,6,7-tetrahydro-pyrazolo[4,3-c]pyridine-5-carboxylic acid tert-butyl ester] | 5 | 27 | 20 | –
6 | O=C(NN1CC2CCCC2C1)c1nn(-c2ccc(Cl)cc2Cl)c2c1CNC/C2=C\c1ccc(F)cc1 (stereo not drawn) [Cpd 90, (7E)-1-(2,4-dichloro-phenyl)-7-(4-fluoro-benzylidene)-4,5,6,7-tetrahydro-1H-pyrazolo[4,3-c]pyridine-3-carboxylic acid (hexahydro-cyclopenta[c]pyrrol-2-yl)-amide] | 8 | 15 | 30 | –
7 | CC(=O)N1C/C(=C\c2ccc(F)cc2)c2c(c(C(=O)NN3CC4CCCC4C3)nn2-c2ccc(Cl)cc2Cl)C1 (stereo not drawn) [Cpd 91, (7E)-5-acetyl-1-(2,4-dichloro-phenyl)-7-(4-fluoro-benzylidene)-4,5,6,7-tetrahydro-1H-pyrazolo[4,3-c]pyridine-3-carboxylic acid (hexahydro-cyclopenta[c]pyrrol-2-yl)-amide] | 3 | 14 | 50 | –
8 | COC(=O)N1C/C(=C\c2ccc(F)cc2)c2c(c(C(=O)NN3CC4CCCC4C3)nn2-c2ccc(Cl)cc2Cl)C1 (stereo not drawn) [Cpd 92, (7E)-1-(2,4-dichloro-phenyl)-7-(4-fluoro-benzylidene)-3-(hexahydro-cyclopenta[c]pyrrol-2-ylcarbamoyl)-1,4,6,7-tetrahydro-pyrazolo[4,3-c]pyridinc-5-carboxylic acid methyl ester] | 2 | 4 | 20 | –
9 | COc1ccc(/C=C2\CNCc3c(C(=O)N[C@H](C)c4ccccn4)nn(-c4ccc(Cl)cc4Cl)c32)cc1 [Cpd 93, (7E)-1-(2,4-dichloro-phenyl)-7-(4-methoxy-benzylidene)-4,5,6,7-tetrahydro-1H-pyrazolo[4,3-c]pyridine-3-carboxylic acid [(1R)-1-pyridin-2-yl-ethyl]-amide] | 8 | 7 | 30 | –
10 | COc1ccc(/C=C2\CNCc3c(C(=O)NN4CC5CCCC5C4)nn(-c4ccc(Cl)cc4Cl)c32)cc1 (stereo not drawn) [Cpd 95, (7E)-1-(2,4-dichloro-phenyl)-7-(4-methoxy-benzylidene)-4,5,6,7-tetrahydro-1H-pyrazolo[4,3-c]pyridine-3-carboxylic acid (hexahydro-cyclopenta[c]pyrrol-2-yl)-amide] | 9 | 20 | 80 | –
11 | COC(=O)N1C/C(=C\c2ccc(OC)cc2)c2c(c(C(=O)N[C@H](C)c3ccccn3)nn2-c2ccc(Cl)cc2Cl)C1 [Cpd 96, (7E)-1-(2,4-dichloro-phenyl)-7-(4-methoxy-benzylidene)-3-[(1R)-1-pyridin-2-yl-ethylcarbamoyl]-1,4,6,7-tetrahydro-pyrazolo[4,3-c]pyridine-5-carboxylic acid methyl ester] | 1 | 56 | 3 | –
12 | COc1ccc(/C=C2\CN(C(C)=O)Cc3c(C(=O)N[C@H](C)c4ccccn4)nn(-c4ccc(Cl)cc4Cl)c32)cc1 [Cpd 97, (7E)-5-acetyl-1-(2,4-dichloro-phenyl)-7-(4-methoxy-benzylidene)-4,5,6,7-tetrahydro-1H-pyrazolo[4,3-c]pyridine-3-carboxylic acid [(1R)-1-pyridin-2-yl-ethyl]-amide] | 10 | – | 7 | inhibition at 0.2 µM [2, 4]: 33%
13 | CCNC(=O)N1C/C(=C\c2ccc(OC)cc2)c2c(c(C(=O)N[C@H](C)c3ccccn3)nn2-c2ccc(Cl)cc2Cl)C1 [Cpd 98, (7E)-1-(2,4-dichloro-phenyl)-7-(4-methoxy-benzylidene)-1,4,6,7-tetrahydro-pyrazolo[4,3-c]pyridine-3,5-dicarboxylic acid 5-ethylamide 3-{[(1R)-1-pyridin-2-yl-ethyl]-amide}] | 4 | 17 | 8 | –
14 | COc1ccc(/C=C2\CN(S(C)(=O)=O)Cc3c(C(=O)N[C@H](C)c4ccccn4)nn(-c4ccc(Cl)cc4Cl)c32)cc1 [Cpd 99, (7E)-1-(2,4-dichloro-phenyl)-5-methanesulfonyl-7-(4-methoxy-benzylidene)-4,5,6,7-tetrahydro-1H-pyrazolo[4,3-c]pyridine-3-carboxylic acid [(1R)-1-pyridin-2-yl-ethyl]-amide] | 3 | 32 | 2 | –
15 | COC(=O)N1C/C(=C\c2ccc(OC)cc2)c2c(c(C(=O)NN3CC4CCCC4C3)nn2-c2ccc(Cl)cc2Cl)C1 (stereo not drawn) [Cpd 100, (7E)-1-(2,4-dichloro-phenyl)-3-(hexahydro-cyclopenta[c]pyrrol-2-ylcarbamoyl)-7-(4-methoxy-benzylidene)-1,4,6,7-tetrahydro-pyrazolo[4,3-c]pyridine-5-carboxylic acid methyl ester] | 1 | 63 | 7 | –
16 | C[C@@H](NC(=O)c1nn(Cc2ccccc2)c2c1CN(C(=O)OC(C)(C)C)CC2)C1CCCCC1 [Cpd 103, 1-benzyl-3-[(1R)-1-cyclohexyl-ethylcarbamoyl]-1,4,6,7-tetrahydro-pyrazolo[4,3-c]pyridine-5-carboxylic acid tert-butyl ester] | – | – | – | CB1 Receptor Functional Activity (change in functional activity, CRE β-gal) [1]: 8%; IC50 ([2]; human CB2, SK-N-MC cell membranes, calculated by linear regression from percent inhibition at various concentrations, read-out: Cannabinoid CB2 Receptor Binding IC50): 900 nM; IC50 [3, 5]: 300 nM
17 | CC(C)(C)OC(=O)N1CCc2c(c(C(=O)N[C@H]3C4(C)CCC(C4)C3(C)C)nn2Cc2ccccc2)C1 (stereo partly drawn) [Cpd 104, 1-benzyl-3-[(2S)-1,3,3-trimethyl-bicyclo[2.2.1]hept-2-ylcarbamoyl]-1,4,6,7-tetrahydro-pyrazolo[4,3-c]pyridine-5-carboxylic acid tert-butyl ester] | – | – | – | CB1 Receptor Functional Activity (change in functional activity, CRE β-gal) [1]: −11%; IC50 [2]: 20 nM; IC50 [3, 5]: 500 nM
18 | CC12CCC(C1)C(C)(C)[C@H]2NC(=O)c1nn(Cc2ccccc2)c2c1CNCC2 (stereo partly drawn) [Cpd 105, 1-benzyl-4,5,6,7-tetrahydro-1H-pyrazolo[4,3-c]pyridine-3-carboxylic acid [(2S)-1,3,3-trimethyl-bicyclo[2.2.1]hept-2-yl]-amide] | – | – | 200 | CB1 Receptor Functional Activity (change in functional activity, CRE β-gal) [1]: −18%; IC50 [2]: 500 nM
19 | CC(=O)N1CCc2c(c(C(=O)NC3C4(C)CCC(C4)C3(C)C)nn2Cc2ccccc2)C1 (stereo not drawn) [Cpd 109, 5-acetyl-1-benzyl-4,5,6,7-tetrahydro-1H-pyrazolo[4,3-c]pyridine-3-carboxylic acid (1,3,3-trimethyl-bicyclo[2.2.1]hept-2-yl)-amide] | 8100 | – | 1300 | IC50 [2]: 80 nM
20 | CC(C)(C)OC(=O)N1CCc2c(c(C(=O)NC3C4(C)CCC(C4)C3(C)C)nn2-c2ccccc2)C1 (stereo not drawn) [Cpd 111, 1-phenyl-3-(1,3,3-trimethyl-bicyclo[2.2.1]hept-2-ylcarbamoyl)-1,4,6,7-tetrahydro-pyrazolo[4,3-c]pyridine-5-carboxylic acid tert-butyl ester] | – | – | – | CB1 Receptor Functional Activity (change in functional activity, CRE β-gal) [1]: 24%; IC50 [2]: 100 nM; inhibition at 0.2 µM [3]: 27%
21 | CC(=O)N1CCc2c(c(C(=O)NC3C4(C)CCC(C4)C3(C)C)nn2-c2ccccc2)C1 (stereo not drawn) [Cpd 112, 5-acetyl-1-phenyl-4,5,6,7-tetrahydro-1H-pyrazolo[4,3-c]pyridine-3-carboxylic acid (1,3,3-trimethyl-bicyclo[2.2.1]hept-2-yl)-amide] | – | – | – | CB1 Receptor Functional Activity (change in functional activity, CRE β-gal) [1]: 45%; IC50 [2]: 100 nM; inhibition at 0.2 µM [3, 4]: 44%
